Laboratory results published in ChEMBL document CHEMBL5215006, “Antitumor Activity of Piceamycin by Upregulation of N-Myc Downstream-Regulated Gene 1 in Human Colorectal Cancer Cells” (J Nat Prod, 2022).
Calls of active or inactive are those of the source. No cut-off for these calls is given here.

Tests used:
[1] = system: SW480; assay: Cell cycle arrest in human SW480 cells assessed as accumulation at G0/G1 phase at 0.35 uM incubated for 24 hrs by RNaseA/propidium iodide staining based flow cytometry (reference value: 54.49 %); format: functional
[2] = system: SW480; assay: Cell cycle arrest in human SW480 cells assessed as accumulation at S phase at 0.35 uM incubated for 24 hrs by RNaseA/propidium iodide staining based flow cytometry (reference value: 16.7 %); format: functional
[3] = system: SW480; assay: Cell cycle arrest in human SW480 cells assessed as accumulation at G2/M phase at 1.4 uM incubated for 24 hrs by RNaseA/propidium iodide staining based flow cytometry (reference value: 24.74 %); format: functional
[4] = system: HCT-116; assay: Cell cycle arrest in human HCT-116 cells assessed as downregulation of CDK4 protein expression at 0.075 to 0.3 uM incubated for 24 hrs by immunoblotting assay; format: functional, cell-based; conditions: dose 0.075-0.3 µM
[5] = system: SW480; assay: Cell cycle arrest in human SW480 cells assessed as downregulation of cyclin-D1 protein expression at 0.35 to 1.4 uM incubated for 24 hrs by immunoblotting assay; format: functional, cell-based; conditions: dose 0.35-1.4 µM
[6] = system: SW480; assay: Induction of apoptosis in human SW480 cells assessed as early apoptotic cells at 1.4 uM incubated for 48 hrs by Annexin V-FITC/PI staining based flow cytometry analysis (Rvb= 2.07%); format: functional
[7] = system: HCT-116; assay: Anti-migratory activity against human HCT-116 cells assessed as downregulation of N-cadherin protein expression at 0.075 to 0.3 uM incubated for 24 hrs by immunoblotting assay; format: functional, cell-based; conditions: dose 0.075-0.3 µM
[8] = system: HCT-116; assay: Downregulation of cleaved caspase 8 protein expression in human HCT-116 cells with NDRG1 knockdown at 0.3 uM incubated for 24 hrs by immunoblotting assay; format: functional, cell-based
[9] = system: HCT-116; assay: Downregulation of cleaved PARP protein expression in human HCT-116 cells with NDRG1 knockdown at 0.3 uM incubated for 24 hrs by immunoblotting assay; format: functional, cell-based

C[C@@H]1\C=C/C=C/C=C\C=C\C=C\C(=O)C2=C(O)C(=O)C[C@@]2(C)/C=C/C=C\C=C/C(=O)NC1
Activity [1]: 54.89% | Activity [2]: 15.86% | Activity [3]: 19.26% | Activity [4]: Active | Activity [5]: Active | Activity [6]: 24.26% | Activity [7]: Active | Activity [8]: Active | Activity [9]: Active
